These results are taken from US9765087B2, “Benzimidazole derivatives” (ENANTA PHARMACEUTICALS, INC., priority 2009, dated 2017).

Bounds are passed on as bounds.

In the first test the test system is HCV 1b genotype replicon. The test is described as follows: HCV replicon assay (qRT-PCR or luciferase), genotype 1b. It counts as cell-based. The following applies: Hepatitis C virus, Table 11, qRT-PCR or luciferase assay, read-out: Genotype-1b replicon EC50 Range. An excerpt: HCV replicon cell lines (kindly provided by R. Bartenschlager) isolated from colonies as described by Lohman et. al. (Lohman et al. (1999) Science 285: 110-113, expressly incorporated by reference in its entirety) and used for all experiments. The HCV replicon has the nucleic acid sequence set forth in EMBL Accession No.: AJ242651, the coding sequence of which is from nucleotides 1801 to 8406.
The coding sequence of the published HCV replicon was synthesized and subsequently assembled in a modified plasmid pBR322 (Promega, Madison, Wis.) using standard molecular biology techniques. One replicon cell line (“SGR 11-7”) stably expresses HCV replicon RNA which consists of (i) the HCV 5′UTR fused to the first 12 amino acids of the capsid protein, (ii) the neomycin phosphotransferase gene (neo), (iii) the IRES from encephalomyocarditis virus (EMCV), and (iv) HCV […] to NSSB genes and the HCV 3′UTR. Another replicon cell line (“Huh-luc/neo-ET”) described by Vrolijk et. al. (Vrolijk et. al. (2003) Journal of Virological Methods 110:201-209, expressly incorporated by reference in its entirety) stably expresses HCV replicon RNA which consists of (i) the HCV 5′UTR fused to the first 12 amino acids of the capsid protein, (ii) the firefly luciferase reporter gene, (iii) the ubiquitin gene, (iv) the neomycin phosphotransferase gene (neo), (v) the IRES from encephalomyocarditis virus (EMCV), and (vi) HCV NS3 to NS5B genes that harbor cell culture adaptive mutations (E1202G, T1280I, K1846T) and the HCV 3′UTR.
These cell lines were maintained at 37° C., 5% CO2, 100% relative humidity in DMEM (Cat#11965-084, Invitrogen), with 10% fetal calf serum (“FCS”, Invitrogen), 1% non-essential amino acids (Invitrogen), 1% of Glutamax (Invitrogen), 1% of 100× penicillin/streptomycin (Cat#15140-122, Invitrogen) and Geneticin (Cat#10131-027, Invitrogen) at 0.75 mg/ml or 0.5 mg/ml for 11-7 and Huh-luc/neo-ET cells, respectively.
EC50 values of single agent compounds and combinations were determined by HCV RNA detection using quantitative RT-PCR, according to the manufacturer's instructions, with a TAQMAN® One-Step RT-PCR Master Mix Reagents Kit (Cat#AB 4309169, Applied Biosystems) on an ABI Model 7500 thermocycler. The TaqMan primers used for detecting and quantifying HCV RNA were obtained from Integrated DNA Technologies. HCV RNA was normalized to GAPDH RNA levels in drug-treated cells, which is detected and quantified using the Human GAPDH Endogenous Control Mix (Applied Biosystems, AB 4310884E). Total cellular RNA is purified from 96-well plates using the RNAqueous 96 kit (Ambion, Cat# AM1812). Chemical agent cytotoxicity is evaluated using an MTS assay according to the manufacturer's directions (Promega).
Since clinical drug resistance often develops in viral infections following single agent therapies, there is a need to assess the additive, antagonistic, or synergistic properties of combination therapies. We used the HCV replicon system to assess the potential use of the compound of the present invention or in combination therapies with Interferon alpha, cyclosporine analogs and inhibitors targeting other HCV proteins. The acute effects of a single or combinations of drugs are studied in the “Huh-luc/neo-ET” replicon with each chemical agent titrated in an X or Y direction in a 6 point two-fold dilution curve centered around the EC50 of each drug. Briefly, replicon cells are seeded at 7,000 cells per well in 90 ul DMEM (without phenol red, Invitrogen Cat.#31053-036) per well with 10% FCS, 1% non-essential amino acids, 1% of Glutamax and 1% of 100× penicillin/streptomycin and incubated overnight at 37° C., 5% CO2, 100% relative humidity. […]
(In antiviral work, replicon cells carry a viral genome segment that copies itself.)
`COC(=O)N[C@H](C(=O)N1CCC[C@H]1c1nc2cc(C#Cc3ccc(-c4c[nH]c([C@@H]5CCCN5C(=O)[C@H](NC(=O)OC)C(C)C)n4)cc3)ccc2[nH]1)C(C)C` [Example 513]: the EC50 (usually the concentration needed to bring the measured effect to its halfway point) is < 1 nM.
For `COC(=O)N[C@H](C(=O)N1CCC[C@H]1c1ncc(-c2ccc(C#Cc3ccc4nc([C@@H]5CC[C@H](C)N5C(=O)[C@@H](NC(=O)OC)C(C)C)[nH]c4c3)cc2)[nH]1)C(C)C` [Example 542], the EC50 is < 1 nM.
Same read-out and setting: in the case of `COC(=O)N[C@H](C(=O)N1CCC[C@H]1c1ncc(-c2ccc(C#Cc3ccc4nc([C@@H]5CCCN5C(=O)[C@@H](NC(=O)OC)[C@H](C)O)[nH]c4c3)cc2)[nH]1)C(C)C` [Example 531] it was < 1 nM; in that of `COC(=O)N[C@H](C(=O)N1CCC[C@H]1c1nc2cc(C#Cc3ccc(-c4c[nH]c([C@@H]5CCCN5C(=O)OC(C)(C)C)n4)cc3)ccc2[nH]1)C(C)C` [Example 510], < 1 nM.
Same read-out and setting: the figure for `COC(=O)N[C@@H](C(=O)N1CCC[C@H]1c1cc(-c2ccc(C#Cc3ccc4[nH]c([C@@H]5CCCN5C(=O)[C@H](NC(=O)OC)c5ccccc5)nc4c3)cc2)n[nH]1)c1ccccc1` [Example 445] is < 1 nM; for `[2H]c1c([2H])c(-c2c[nH]c([C@@H]3CCCN3C(=O)[C@@H](NC(=O)OC)C(C)C)n2)c([2H])c([2H])c1C#Cc1ccc2[nH]c([C@@H]3CCCN3C(=O)[C@@H](NC(=O)OC)C(C)C)nc2c1` [Example 488] it is < 1 nM.
The same measure, in the same setting: the figure for `COC(=O)N[C@H](C(=O)N1CC2(CC2)C[C@H]1c1nc(-c2ccc(C#Cc3ccc4[nH]c([C@@H]5CC6(CC6)CN5C(=O)[C@@H](NC(=O)OC)C(C)C)nc4c3)cc2)c[nH]1)C(C)C` [Example 525] is < 1 nM.
On to `COC(=O)N[C@@H](C(=O)N1CCC[C@H]1c1nc(-c2ccc(/C=C/c3ccc4[nH]c([C@@H]5CCCN5C(=O)[C@H](NC(=O)OC)c5ccccc5)nc4c3)cc2)c[nH]1)c1ccccc1` [Example 357], for which the 50% effective concentration (EC50) is < 1 nM.
Same read-out and setting: in the case of `COC(=O)N[C@@H](C(=O)N1CCC[C@H]1c1ncc(-c2ccc(CCc3ccc4nc([C@@H]5CCCN5C(=O)[C@H](NC(=O)OC)c5ccccc5)[nH]c4c3)cc2)[nH]1)c1ccccc1` [Example 2-2] it was < 1 nM; in that of `COC(=O)N[C@H](C(=O)N1CCC[C@H]1c1ncc(-c2ccc(C#Cc3ccc4nc([C@@H]5C[C@H](Oc6ccccc6)CN5C(=O)[C@@H](NC(=O)OC)C(C)C)[nH]c4c3)cc2)[nH]1)C(C)C` [Example 538], < 1 nM; in that of `COC(=O)N[C@H](C(=O)N1CCC[C@H]1c1nc(-c2ccc(C#Cc3ccc4[nH]c([C@@H]5CCCN5C(=O)[C@@H](NC(=O)OC)C(C)C)nc4c3)cc2)c[nH]1)c1ccccc1` [Example 514], < 1 nM.
Still for that read-out and setting: the figure for `COC(=O)N[C@H](C(=O)N1CCC[C@H]1c1ncc(-c2ccc([C@@H]3C[C@H]3c3ccc4nc([C@@H]5CCCN5C(=O)[C@@H](NC(=O)OC)C(C)C)[nH]c4c3)cc2)[nH]1)C(C)C` [Example 497-b] is < 1 nM.
Same read-out and setting: in the case of `COC(=O)N[C@H](C(=O)N1CCC[C@H]1c1ncc(-c2ccc(C#Cc3ccc4nc([C@]5(Cc6ccccc6)CCCN5C(=O)[C@@H](NC(=O)OC)C(C)C)[nH]c4c3)cc2)[nH]1)C(C)C` [Example 536] it was < 1 nM.
With `COC(=O)N[C@H](C(=O)N1CCC[C@H]1c1nc(-c2ccc(C#Cc3ccc4[nH]c([C@@H]5CC(=O)CN5C(=O)[C@@H](NC(=O)OC)C(C)C)nc4c3)cc2)c[nH]1)C(C)C` [Example 486], the EC50 was < 1 nM.
On the same count and under the same terms, in the case of `COC(=O)N[C@H](C(=O)N1CCC[C@H]1c1nc(-c2ccc3cc(-c4ccc5[nH]c([C@@H]6CCCN6C(=O)[C@@H](NC(=O)OC)[C@@H](C)OC)nc5c4)ccc3c2)c[nH]1)[C@@H](C)OC` [Example 460] it was < 1 nM.
Same read-out and setting: in the case of `COC(=O)N[C@H](C(=O)N1CCC[C@H]1c1nc(-c2ccc3cc(-c4cc5nc([C@@H]6CCCN6C(=O)[C@@H](NC(=O)OC)C(C)C)[nH]c5cc4Cl)ccc3c2)c[nH]1)C(C)C` [Example 490] it was < 1 nM.
The same measure, in the same setting: in the case of `COC(=O)N[C@H](C(=O)N1CCC[C@H]1c1nc(C#Cc2ccc(-c3ccc4[nH]c([C@@H]5CCCN5C(=O)[C@@H](NC(=O)OC)C(C)C)nc4c3)cc2)c[nH]1)C(C)C` [Example 468] it was < 1 nM.
Take `COC(=O)N[C@H](C(=O)N1CCC[C@H]1c1nc2cc(C#Cc3ccc(-c4c[nH]c([C@@H]5CCCN5C(=O)[C@@H](NC(C)=O)C(C)C)n4)cc3)ccc2[nH]1)C(C)C` [Example 511]: the half-maximal effective concentration (EC50) was < 1 nM.
The same measure, in the same setting: the figure for `COC(=O)N[C@@H](C(=O)N1CCC[C@H]1c1nc(-c2ccc(C#Cc3ccc4[nH]c([C@@H]5CCCN5C(=O)[C@H](NC(=O)OC)c5ccccc5)nc4c3)cc2)c[nH]1)c1ccccc1` [Example 2-1] is < 1 nM; for `COC(=O)N[C@H](C(=O)N1CCC[C@H]1c1ncc(-c2ccc(C#Cc3ccc4nc([C@@H]5CCCN5C(=O)[C@@H](NC(=O)OC)C(C)C)[nH]c4c3)cc2)[nH]1)C(C)C` [Example 515] it is < 1 nM.
In the case of `COC(=O)N[C@H](C(=O)N1CCC[C@H]1c1nc(-c2ccc(C#Cc3ccc4[nH]c([C@@H]5CCCN5C(=O)[C@@H](NC(C)=O)C(C)C)nc4c3)cc2)c[nH]1)C(C)C` [Example 506], the concentration for a half-maximal effect (EC50) is < 1 nM.
As for `COC(=O)N[C@@H](C(=O)N1CCC[C@H]1c1nc(-c2ccc(CCc3ccc4[nH]c([C@@H]5CCCN5C(=O)[C@H](NC(=O)OC)c5ccccc5)nc4c3)cc2)n[nH]1)c1ccccc1` [Example 443], the EC50 was < 1 nM.

The same test, now with this note: Hepatitis C virus, Table 12, numeric values, read-out: 1b EC50.
Take `COC(=O)N[C@H](C(=O)N1CCC[C@H]1c1ncc(-c2ccc(C#Cc3ccc4nc([C@@H]5C[C@@]6(CC=CCO6)CN5C(=O)[C@@H](NC(=O)OC)C(C)C)[nH]c4c3)cc2)[nH]1)C(C)C` [Example 563]: the concentration giving a half-maximal response (EC50) came to 0.012 nM.
The same measure, in the same setting: in the case of `COC(=O)N[C@H](C(=O)N1CCC[C@H]1c1ncc(-c2ccc(C#Cc3ccc4nc([C@@H]5C[C@]6(CC(C)=NO6)CN5C(=O)[C@@H](NC(=O)OC)C(C)C)[nH]c4c3)cc2)[nH]1)C(C)C` [Example 554] it was 0.028 nM.
On the same count and under the same terms, in the case of `COC(=O)N[C@H](C(=O)N1CCC[C@H]1c1ncc(-c2ccc(C#Cc3ccc4nc([C@@H]5C[C@]6(CCCOC6)CN5C(=O)[C@@H](NC(=O)OC)C(C)C)[nH]c4c3)cc2)[nH]1)C(C)C` [Example 570] it was 0.008 nM; in that of `COC(=O)N[C@H](C(=O)N1CC2(CC2)C[C@H]1c1nc2cc(C#Cc3ccc(-c4cn(O)c([C@@H]5CC6(CC6)CN5C(=O)[C@@H](NC(=O)OC)C(C)C)n4)cc3)ccc2[nH]1)C(C)C` [Example 571], 0.013 nM; in that of `COC(=O)N[C@H](C(=O)N1CC2(CC2)C[C@H]1c1ncc(-c2ccc(C#Cc3ccc4nc([C@@H]5CC6(CC6)CN5C(=O)OC(C)(C)C)[nH]c4c3)cc2)[nH]1)C(C)C` [Example 649], 0.304 nM.
Turning to `COC(=O)N[C@H](C(=O)N1CC2(CC2)C[C@H]1c1nc2cc(C#Cc3ccc(-c4coc([C@@H]5CC6(CC6)CN5C(=O)[C@@H](NC(=O)OC)C(C)C)n4)cc3)ccc2[nH]1)C(C)C` [Example 577], the 50% effective concentration (EC50) is 0.16 nM.

The same test, now with this note: Hepatitis C virus, Table 12, range class, read-out: 1b EC50 Range.
Consider `COC(=O)N[C@H](C(=O)N1CCC[C@H]1c1ncc(-c2ccc(C#Cc3ccc4nc([C@@H]5C[C@@]6(CC(C)=NO6)CN5C(=O)[C@@H](NC(=O)OC)C(C)C)[nH]c4c3)cc2)[nH]1)C(C)C` [Example 623], for which the EC50 was < 1 nM.
For `COC(=O)N[C@H](C(=O)N1CC(C)(C)C[C@H]1c1ncc(-c2ccc(C#Cc3ccc4nc([C@@H]5C[C@@]6(CCCO6)CN5C(=O)[C@@H](NC(=O)OC)C(C)C)[nH]c4c3)cc2)[nH]1)C(C)C` [Example 560], the concentration giving a half-maximal response (EC50) was < 1 nM.
